Results reported in US8663912B2, “Fluorogenic substrate for ADAMTS13” (Washington University, priority 2011, dated 2014).
Values joined by “and” are separate entries in the source; they are usually repeats but may differ in a detail not shown here. Identical values can stand only once. * marks the point of attachment. X1 = CC1(C)C(/C=C/C2=C(Cl)C(=C/C=C3/N(CCCCCC(=O)*)c4ccc5cc(S(=O)(=O)O)ccc5c4C3(C)C)/CCC2)=[N+](CCCS(=O)(=O)[O-])c2ccc(N(CCCS(=O)(=O)O)CCCS(=O)(=O)O)cc21; X2 = CC(C)(C)c1cc(/C=C/C=C2\N(CCCS(=O)(=O)O)c3ccc(S(=O)(=O)O)cc3C2(C)CCCC(=O)CCN2C(=O)CC(*)C2=O)c2ccc(N(CCCS(=O)(=O)[O-])CCCS(=O)(=O)O)cc2[o+]1

Biological target: T1, ADAMTS13 (Homo sapiens, UniProt Q76LX8)
T1 sequence (Q76LX8 75-1427): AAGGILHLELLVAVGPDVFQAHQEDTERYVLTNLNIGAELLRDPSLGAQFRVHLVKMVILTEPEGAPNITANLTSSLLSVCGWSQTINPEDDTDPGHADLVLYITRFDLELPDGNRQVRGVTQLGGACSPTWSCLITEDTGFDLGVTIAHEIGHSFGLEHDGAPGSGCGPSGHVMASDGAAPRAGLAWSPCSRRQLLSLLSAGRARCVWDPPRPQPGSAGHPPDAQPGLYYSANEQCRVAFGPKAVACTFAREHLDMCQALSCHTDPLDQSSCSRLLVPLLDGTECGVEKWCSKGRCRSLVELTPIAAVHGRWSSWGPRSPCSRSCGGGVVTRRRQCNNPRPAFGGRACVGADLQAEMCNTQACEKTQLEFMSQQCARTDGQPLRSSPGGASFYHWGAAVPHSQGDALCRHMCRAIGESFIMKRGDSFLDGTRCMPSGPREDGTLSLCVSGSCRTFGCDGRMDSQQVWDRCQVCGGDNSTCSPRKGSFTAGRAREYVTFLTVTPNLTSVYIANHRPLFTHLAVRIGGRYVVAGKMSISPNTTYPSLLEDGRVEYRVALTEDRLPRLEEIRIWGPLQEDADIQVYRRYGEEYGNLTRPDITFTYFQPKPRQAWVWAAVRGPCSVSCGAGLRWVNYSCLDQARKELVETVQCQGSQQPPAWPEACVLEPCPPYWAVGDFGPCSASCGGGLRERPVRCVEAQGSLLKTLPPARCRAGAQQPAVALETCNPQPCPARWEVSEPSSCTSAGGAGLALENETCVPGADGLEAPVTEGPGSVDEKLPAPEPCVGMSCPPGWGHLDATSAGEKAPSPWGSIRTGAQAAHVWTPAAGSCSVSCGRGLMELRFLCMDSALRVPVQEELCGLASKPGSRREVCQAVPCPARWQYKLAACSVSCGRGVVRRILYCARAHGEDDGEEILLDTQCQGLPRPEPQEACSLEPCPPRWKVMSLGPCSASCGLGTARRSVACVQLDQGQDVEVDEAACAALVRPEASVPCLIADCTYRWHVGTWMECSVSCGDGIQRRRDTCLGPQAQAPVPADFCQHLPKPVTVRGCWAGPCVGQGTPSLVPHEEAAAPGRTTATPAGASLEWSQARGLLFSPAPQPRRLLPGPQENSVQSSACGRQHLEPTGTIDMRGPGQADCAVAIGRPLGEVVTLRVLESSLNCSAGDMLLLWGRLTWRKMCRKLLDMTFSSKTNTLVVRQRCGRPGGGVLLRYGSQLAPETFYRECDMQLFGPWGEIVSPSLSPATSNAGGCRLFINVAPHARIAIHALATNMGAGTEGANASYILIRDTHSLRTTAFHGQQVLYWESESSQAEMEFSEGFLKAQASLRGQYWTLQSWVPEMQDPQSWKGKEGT
Test: Fluorogenic ADAMTS13 activity assay, signal and sensitivity compared between substrates
Assay type: biochemical
Set-up: from tissue; host or cells: human plasma (TTP patients, healthy controls)
Experimental: In these experiments, the FRETS-rVWF71 substrate was utilized in a microtiter format (FIG. 2), which is compatible with fluorescence plate readers that are supported by laboratory equipment suppliers and available in many clinical hemostasis laboratories, such as the BIO-TEK FLx800 Fluorometer from DiaPharma (West Chester, Ohio) or Technoclone (Vienna). Reactions were performed in 200 μL 5 mM Bis-Tris, pH 6, 25 mM CaCl2, at room temperature with added plasma as shown (FIG. 2). Fluorescence was monitored in a Victor^2 V microplate reader (Perkin Elmer Life Sciences, Boston, Mass.) with 638 nm excitation filter and 658 nm emission filter.
Using 1 μM substrate with varying amounts of plasma or serum and optimal filters for each substrate, ΔF/min for VWF-rFRETS71 is 8-fold greater compared to VWF-FRETS73. In addition, assays with VWF-rFRETS71 are linear with time and linear with enzyme up to >95% serum or plasma added, with no significant background fluorescence or interference from blood constituents. The combination of stronger fluorescence signal and compatibility with undiluted plasma make FRETS-rVWF71 ˜250-fold more sensitive than FRETS-VWF73.
Assays were performed at 30° C. Samples (100 μL) of plasma or serum, diluted as necessary in assay buffer, were pipetted in duplicate in 96 well white microplates (Optiplate-96, PerkinElmer, Waltham, Mass.). Reaction was initiated by addition of 100 μL substrate in assay buffer. Cleavage of FRETS-rVWF71 was detected as an increase in fluorescence compared to control reactions without added enzyme at 2 min intervals using a Victor^2V Multilabel Counter (PerkinElmer, Waltham, Mass.) or Synergy H1 Hybrid Multi-Mode Microplate Reader (Biotek, Winooski, Vt.) equipped with 635±10 nm excitation and 660±10 nm emission filters. Initial velocities were determined by fitting progress curves to the polynomial ΔF=A+Bt+Ct^2, where ΔF is the change in fluorescence, t is time, A is the y-intercept, B is the initial velocity (slope), and the term Ct^2 accounts for any decline in velocity due to substrate consumption or photobleaching.
ADAMTS13 assays with the FRETS-VWF73 substrate (Kokame, K., et al. Br. J. Haematol. 129:93-100, 2005) (Peptide International, Louisville, Ky.) were performed according to the manufacturer's instructions. Hemoglobin was prepared by hypotonic lysis of red blood cells from a voluntary donor and quantified with Drabkin's reagent (Sigma, St. Louis, Mo.).
Results with FRETS-rVWF71 and FRETS-VWF73 assayed under standard conditions (Kokame, K., et al. Br. J. Haematol. 129:93-100, 2005) correlated well with an inter-assay CV of 3.8%. Using 1 μM substrate and 5 μL PNP, the change in fluorescence (ΔF/min) for FRETS-rVWF71 (50 mM HEPES, pH 7.4, 150 mM NaCl) was 8-fold greater than for FRETS-VWF73 (5 mM Bis-Tris, pH 6).

## X1-GQAPNLVYMVTGC(X2)PASDEIRRLPGDIQVVPIGVGPNANVQELERIGWPNAPILIQDFETLPREAPDLVLQR [FRETS-rVWF71]
1 μM substrate, 5 μL PNP, FRETS-rVWF71 in 50 mM HEPES pH 7.4, 150 mM NaCl, FRETS-VWF73 in 5 mM Bis-Tris pH 6
  change in fluorescence (ΔF/min) greater than for FRETS-VWF73: 8 fold
1 μM substrate, varying amounts of plasma or serum, optimal filters for each substrate
  ΔF/min greater compared to FRETS-VWF73: 8 fold
Equal concentrations of plasma as the enzyme source
  assay sensitivity relative to FRETS-VWF73: approximately 8 fold
Stronger fluorescence signal combined with undiluted plasma
  overall sensitivity relative to FRETS-VWF73: ~250 fold and 240 fold
Use in undiluted plasma
  further increase of sensitivity relative to FRETS-VWF73: 30 fold
